These results are taken from patent US20040253665A1, “Novel peptide-producing enzyme, microbe producing the enzyme and method for dipeptide synthesis using them” (AJINOMOTO CO., INC., priority 2002, published 2004).

The assay relates to peptide-producing enzyme (Mono S fraction) from Empedobacter brevis strain FERM BP-8113. Put plainly: Enzyme substrate specificity (1)-(10), (13), (14). Type of assay: biochemical. The settings on record: for L-Ala-L-Gln produced: carboxy component (label) 100 mM, 200 mM L-glutamine, 2 hours. The source says: Ester specificity was examined in the case of using L-amino acid ester for the carboxy component. […] The amounts of L-Ala-L-Gln produced in this reaction are shown in Table 4 (HCl represents hydrochloride in Table 4). Peptide production was examined in the case of using L-alanine methyl ester for the carboxy component and using various L-amino acids for the amine component. […] (The “+” mark indicates those peptides for which production was confirmed but which were unable to be quantified due to the absence of a standard, while “tr” indicates a trace amount.) Peptide production was examined in the case of using various types of L-amino acid methyl esters for the carboxy component and using L-glutamine for the amine component. […] Peptide production was examined in the case of using various L-amino acid methyl esters for the carboxy component and various L-amino acids for the amine component. […] (The “tr” indicates a trace amount.) Furthermore, Tween-80 was added to the reaction system to a final concentration of 0.1% in the case of using L-Trp-OMe. (The “+” mark indicates those peptides for which production was confirmed but which were unable to be quantified due to the absence of a standard.) […] (The “tr” indicates a trace amount.) Peptide production was examined using various L-amino acid amides for the carboxy component, and various L-amino acids for the amine component. […] Peptide production was examined in the case of using various L-alanine methyl esters for the carboxy component and C-protected L-amino acids for the amine component. […] Peptide production was examined in the case of using various amino acid methyl esters for the carboxy component and methylamine for the amine component. […] Peptide production was examined in the case of using β-amino acid ester for the carboxy component or β-amino acid for the amine component. […] (The “tr” indicates a trace amount.) Oligopeptide production was examined in the case of using L-amino acid ester for the carboxy component and peptide for the amine component. […] Substrate specificity was additionally assessed using the same enzyme fraction as that used in Example 5. […] (A “+” mark indicates those for which production was confirmed but which were unable to be quantified due to the absence of a standard, while “tr” indicates a trace amount). Substrate specificity with respect to oligopeptide production was assessed using the same enzyme fraction as Example 26. […] (A “+” mark indicates those for which production was confirmed but which were unable to be quantified due to the absence of a standard, while “tr” indicates a trace amount). It should be noted that hydrochlorides were used for all of the carboxy components.

Setting [1] is: carboxy component 40 mM, amine component 40 mM, 0.1 unit enzyme, 25° C., reaction time 3 hr.
The mark [2] stands for this setting: L-amino acid methyl ester hydrochloride 100 mM, L-amino acid 150 mM, pH 9.0, 25° C., 3 hours.
Setting [3] is: β-amino acid ester as carboxy component or β-amino acid as amine component, 100 mM / 150 mM, pH 9.0, 25° C., 3 hours.
[4] abbreviates: carboxy component 100 mM, amine component 150 mM, 0.1 unit enzyme, 25° C., reaction time 2 hr.
Setting [5] is: L or D amino acid methyl ester hydrochloride 100 mM, L or D amino acid 150 mM, pH 9.0, 25° C., 3 hours.
Setting [6] is: L-amino acid ester 100 mM, amino acid or peptide amine component 150 mM, pH 9.0, 25° C., 3 hours.
[7] abbreviates: carboxy component 100 mM, amine component 150 mM, 0.1 unit enzyme, 25° C., reaction time 3 hr.
Where [8] appears, read: oligopeptide production, amount of enzyme 1.0 units, pH 9.0, 25° C., 3 hours.

Marks after values point to notes of the source that are not given here. Non-standard residues stand in square brackets, D forms with d. Residues, ends and D or L forms follow the SMILES beside them. No end group written: not given here. *: point of attachment. Tle = CC(C)(C)[C@H](N)C(=O)O; NMeA = CN[C@@H](C)C(=O)O; Boc = CC(C)(C)OC(=O)*; Aib = CC(C)(N)C(=O)O; OtBu = CC(C)(C)O*; tBu = CC(C)(C)*

Turning to `C[C@H](N)C(=O)N[C@@H](Cc1ccc([N+](=O)[O-])cc1)C(=O)O` [H-Ala-p-NO2-Phe-OH], the “Produced peptide” value under setting [1] is on record as 27.5 mM.

Regarding `CSCC[C@H](NC(=O)[C@@H](N)Cc1cnc[nH]1)C(=O)O` [L-His-L-Met] (H-His-Met-OH), under setting [2], the “Produced peptide” value was determined as 6.5 mM.

With `CCOC(=O)[C@H](C)N.Cl` [L-Alanine ethyl ester.HCl], the “L-Ala-L-Gln produced” value (pH 9.0, 25° C.) worked out at 91.5 mM.

As for `CC(N)C(=O)NCCC(=O)O` (stereo not drawn) [Ala-β-Ala], the “Produced peptide” value under setting [3] is reported as 7.7 mM.

Regarding `C[C@H](N)C(=O)N[C@@H](CC(=O)OC(C)(C)C)C(=O)O` [H-Ala-Asp(OtBu)-OH] (H-Ala-Asp(OtBu)-OH), the “Produced peptide” value under setting [4] worked out at 62.6 mM.

Take `CSCC[C@H](NC(=O)[C@@H](N)CC(C)C)C(=O)O` [L-Leu-L-Met] (H-Leu-Met-OH): the “Produced peptide” value under setting [2] is given as 12.2 mM.

Take `NCCC(=O)NCCC(=O)O` [β-Ala-β-Ala]: the “Produced peptide” value under setting [3] was 0.2 mM.

`CC(C)[C@@H](N)C(=O)N[C@H](CO)C(=O)O` [D-Val-D-Ser] (H-[dV]-[dS]-OH): the “Produced peptide” value under setting [5] worked out at 0.5 mM.

With `CC(N)C(=O)NC(CC(=O)O)c1ccccc1` (stereo not drawn) [Ala-β-Phe], the “Produced peptide” value under setting [3] amounted to 1.4 mM.

As for `CSCC[C@@H](N)C(=O)N[C@@H](CO)C(=O)O` [D-Met-L-Ser] (H-[dM]-Ser-OH), the “Produced peptide” value under setting [5] came to 5.1 mM.

`C[C@H](N)C(=O)N[C@@H](CCCCNC(=O)OC(C)(C)C)C(=O)O` [H-Ala-Lys(Boc)-OH] (H-Ala-Lys(Boc)-OH): the “Produced peptide” value under setting [4] was determined as 51.0 mM.

`N[C@H](CO)C(=O)N[C@H](CO)C(=O)O` [D-Ser-D-Ser] (H-[dS]-[dS]-OH): the “Produced peptide” value under setting [5] is recorded as 2.5 mM.

For `C[C@H](N)C(=O)N[C@@H](Cc1ccc(F)cc1)C(=O)O` [H-Ala-p-F-Phe-OH], where the note is “carboxy component 50 mM, amine component 50 mM, 0.1 unit enzyme, 25° C., reaction time 3 hr”, the “Produced peptide” value is 21.9 mM.

For `C[C@H](N)C(=O)N[C@@H](COC(C)(C)C)C(=O)O` [H-Ala-Ser(tBu)-OH] (H-Ala-Ser(tBu)-OH), the “Produced peptide” value under setting [4] was determined as 48.8 mM.

In the case of `C[C@@H](N)C(=O)N[C@@H](CCC(N)=O)C(=O)O` [D-Ala-L-Gln] (H-[dA]-Gln-OH), under setting [5], the “Produced peptide” value is reported as 69.3 mM.

As for `C[C@@H](O)[C@H](N)C(=O)N[C@H](CO)C(=O)O` [L-Thr-D-Ser] (H-Thr-[dS]-OH), the “Produced peptide” value under setting [5] was 6.9 mM.

Turning to `C[C@H](N)C(=O)OC(C)(C)C.Cl` [L-Alanine-t-butyl ester.HCl], the “L-Ala-L-Gln produced” value (pH 9.0, 25° C.) is on record as 7.5 mM.

On to [dA]-Gly-Phe, for which the “Produced peptide (mM)” value (oligopeptide production, amount of enzyme 0.1 units, pH 9.0, 25° C., 3 hours) is reported as “Tr”.

Regarding `N[C@H](CO)C(=O)N[C@@H](CO)C(=O)O` [D-Ser-L-Ser] (H-[dS]-Ser-OH), the “Produced peptide” value under setting [5] is 3.3 mM.

As to `CSCC[C@H](NC(=O)[C@@H](N)CCCCN)C(=O)O` [L-Lys-L-Met], under setting [2], the “Produced peptide” value is 6.8 mM.

In the case of L-Ala-L-Ala-L-Ala-L-Ala-L-Ala-L-Ala, under “carboxy component 10 mM, amine component 15 mM, pH 9.0, 25° C., 3 hours”, the “Produced peptide (mM)” value is reported as 1.4* mM.

Take Gly-Gly-L-Gln: under setting [6], the “Produced peptide” value was 7.2 mM.

Take `C[C@@H](O)[C@H](N)C(=O)NC(CC(=O)O)c1ccccc1` (stereo partly drawn) [Thr-β-Phe]: the “Produced peptide” value under setting [3] stood at 1.4 mM.

For the compound `CC(C)[C@H](N)C(=O)N[C@H](CO)C(=O)O` [L-Val-D-Ser] (H-Val-[dS]-OH), the “Produced peptide” value under setting [5] was 1.4 mM.

Take `COC(=O)[C@H](C)N.Cl` [L-Alanine methyl ester.HCl, L-alanine methyl ester hydrochloride]: the “L-Ala-L-Gln produced” value (pH 9.0, 25° C.) came to 84.3 mM.

`NCCC(=O)NC(CO)C(=O)O` [β-Ala-L-Ser]: the “Produced peptide” value under setting [3] is reported as 3.2 mM.

Take `C[C@H](O)[C@@H](N)C(=O)N[C@H](CO)C(=O)O` [D-Thr-D-Ser] (H-[dT]-[dS]-OH): the “Produced peptide” value under setting [5] is reported as 1.1 mM.

On to `N[C@@H](Cc1ccccc1)C(=O)N[C@@H](CO)C(=O)O` [L-Phe-L-Ser] (H-Phe-Ser-OH), for which the “Produced peptide” value (L-amino acid amide hydrochloride 100 mM as carboxy component, L-amino acid 150 mM, pH 9.0, 25° C., 3 hours) is listed as 0.6 mM.

`C[C@H](N)C(=O)N[C@@H](Cc1ccc(Cl)cc1)C(=O)O` [H-Ala-Cl-F-Phe-OH]: the “Produced peptide” value under setting [1] is 20.8 mM.

Regarding `C[C@H](O)[C@@H](N)C(=O)N[C@@H](CO)C(=O)O` [D-Thr-L-Ser] (H-[dT]-Ser-OH), under setting [5], the “Produced peptide” value was 1.0 mM.

Consider `CC(C)OC(=O)[C@H](C)N.Cl` [L-Alanine isopropyl ester.HCl], for which, where the note is “pH 9.0, 25° C.”, the “L-Ala-L-Gln produced” value is listed as 78.9 mM.

For the compound `CC(C)(N)C(=O)N[C@@H](CCC(N)=O)C(=O)O` [H-Aib-H-Gln-OH] (H-[Aib]-Gln-OH), the “Produced peptide” value under setting [7] is given as 18.8 mM.

Turning to `CN[C@@H](C)C(=O)N[C@@H](CCC(N)=O)C(=O)O` [H-N-Me-Ala-H-Gln-OH] (H-[NMeA]-Gln-OH), the “Produced peptide” value under setting [7] was 0.5 mM.

Regarding `NCCC(=O)N[C@@H](CCC(N)=O)C(=O)O` [β-Ala-L-Gln], the “Produced peptide” value under setting [3] turned out to be 0.6 mM.

For `CSCC[C@H](N)C(=O)N[C@H](CO)C(=O)O` [L-Met-D-Ser] (H-Met-[dS]-OH), the “Produced peptide” value under setting [5] amounted to 1.9 mM.

With `C[C@H](N)C(=O)N[C@H](C(=O)O)C(C)(C)C` [H-Ala-t-Leu-OH] (H-Ala-[Tle]-OH), under setting [7], the “Produced peptide” value is given as 0.4 mM.

With `NC(=O)CC[C@H](NC(=O)[C@@H](N)Cc1ccc([N+](=O)[O-])cc1)C(=O)O` [H-p-NO2-Phe-H-Gln-OH], the “Produced peptide” value under setting [1] was 1.1 mM.

For `NC(=O)C[C@H](N)C(=O)N[C@@H](CCC(=O)O)C(=O)O` [LAsn-L-Glu] (H-Asn-Glu-OH), under setting [2], the “Produced peptide” value was determined as 10.2 mM.

On to `C[C@@H](O)[C@H](N)C(=O)NCCC(=O)O` [Thr-β-Ala], for which the “Produced peptide” value under setting [3] turned out to be 3.2 mM.

Take `C[C@@H](O)[C@H](N)C(=O)N[C@@H](CO)C(=O)O` [L-Thr-L-Ser] (H-Thr-Ser-OH): under setting [2], the “Produced peptide” value stood at 58.2 mM.

For `CSCC[C@@H](N)C(=O)N[C@H](CO)C(=O)O` [D-Met-D-Ser] (H-[dM]-[dS]-OH), the “Produced peptide” value under setting [5] came out at 2.7 mM.

Turning to `NCC(=O)NCCC(=O)O` [Gly-β-Ala], under setting [3], the “Produced peptide” value amounted to 2.2 mM.

For `C[C@H](N)C(=O)N[C@H](CCC(N)=O)C(=O)O` [L-Ala-D-Gln] (H-Ala-[dQ]-OH), the “Produced peptide” value under setting [5] amounted to 0.3 mM.

With Gly-Gly-L-Tyr-L-Ala, the “Produced peptide” value under setting [6] is given as 44.2 mM.

Turning to `NCC(=O)NC(CC(=O)O)c1ccccc1` (stereo not drawn) [Gly-β-Phe], the “Produced peptide” value under setting [3] was determined as 0.4 mM.

L-Tyr-Gly-Gly-L-Phe-L-Met: under setting [8], the “Produced peptide” value worked out at 2.7 mM.

Turning to Gly-Phe-Met, under setting [8], the “Produced peptide” value is listed as 13.3 mM.

As for `CSCC[C@H](NC(=O)[C@@H](N)Cc1c[nH]c2ccccc12)C(=O)O` [L-Trp-L-Met] (H-Trp-Met-OH), the “Produced peptide” value under setting [2] is 4.1 mM.

Take `CC(C)(C)OC(=O)C[C@H](N)C(=O)N[C@@H](CCC(N)=O)C(=O)O` [H-Asp (OtBu)-Gln-OH] (H-Asp(OtBu)-Gln-OH): the “Produced peptide” value under setting [4] is 0.9 mM.

As for `NCC(=O)N[C@@H](CS)C(=O)O` [Gly-L-CySH] (H-Gly-Cys-OH), under setting [2], the “Produced peptide” value stood at 45.6 mM.

As for `CC(C)(N)C(=O)N[C@@H](Cc1ccccc1)C(=O)O` [H-Aib-Phe-OH] (H-[Aib]-Phe-OH), the “Produced peptide” value under setting [7] is reported as 17.2 mM.

Turning to `N[C@@H](CO)C(=O)N[C@H](CO)C(=O)O` [L-Ser-D-Ser] (H-Ser-[dS]-OH), the “Produced peptide” value under setting [5] turned out to be 16.2 mM.

Take `CC(C)[C@@H](N)C(=O)N[C@@H](CO)C(=O)O` [D-Val-L-Ser] (H-[dV]-Ser-OH): under setting [5], the “Produced peptide” value is given as 0.6 mM.
